Patent publication US20110195845A1, “Constructs for Expressing Herbicide Tolerance Genes, Related Plants, and Related Trait Combinations” (Dow AgroSciences LLC, priority 2008, published 2011)

Experiments:
[1] = test system: Escherichia coli BL21-Star (DE3) with CsVMV promoter//PAT (3037); experiment: Viral promoter driven complementation on glufosinate, plasmid 3037; format: cell-based; details: 48 hrs @37 C; further: key: ++++ = Heavy Lawn Growth; +++ = Lawn Growth; ++ = Lots of Distinct Colonies; + = Scattered Colony Growth
Experimental: (§1) Plasmid constructs in which the DSM-2 (v2) and PAT gene coding sequences were expressed, under either the viral promoters CsVMV or the plant promoter AtUbi10, were assayed for complementation on minimal media containing glufosinate. The plasmids 3778 (Rb7 MARv3//AtUbi10 promoter//DSM-2 (v2)//Atu Orf 1 3′UTR), 3779 (Rb7 MARv3//AtUbi10 promoter//PAT//Atu Orf 1 3′UTR), 3264 (CsVMV promoter//DSM-2//Atu Orf 24 3′UTR), 3037 (CsVMV promoter//PAT//Atu Orf 25/26 3′UTR), and 770 (control plasmid containing CsVMV promoter//GUS v3//Atu Orf 24 3′UTR) were transformed into Escherichia coli BL21-Star (DE3) and grown up in complex media. Five microliters of the cultures were plated on minimal media containing increasing concentrations of Glufosinate and incubated at 37° C. for 48 hours.

[2] = test system: Escherichia coli BL21-Star (DE3) with AtUbi10 promoter//PAT (3779); experiment: Plant promoter driven complementation on glufosinate, plasmid 3779; format: cell-based; design: key: ++++ = Heavy Lawn Growth; +++ = Lawn Growth; ++ = Lots of Distinct Colonies; + = Scattered Colony Growth; details: 48 hrs @37 C
Experimental: as §1

[3] = test system: Escherichia coli BL21-Star (DE3) expressing PAT (v3); experiment: Complementation of cell growth on glufosinate, pDAB4434 (PAT v3); format: cell-based; design: key: −− = No Growth; +++ = Distinct Colony Growth; details: 24 hrs @28 C, 20 uM IPTG
Excerpt: A pET28a(+) expression plasmid containing PAT (v3) was constructed as a positive control. PAT (v3) was cloned as an NcoI-SacI fragment into corresponding restriction sites of pDAB779. Positive clones containing the PAT (v3) gene fragment were verified via restriction enzyme digestion. This construct was labeled as pDAB4434.
The plasmids, pDAB4434, pDAB4412, and an empty pET vector (control) were transformed into Escherichia coli BL21-Star (DE3) bacterial cells. Expression cultures were initiated with 10-200 freshly transformed colonies into 250 mL LB medium containing 50 μg/ml antibiotic and 75 μM IPTG (isopropyl-[…]). The cultures were grown at 28° C. for 24 hours at 180-200 rpm. Five microliters of the culture was inoculated onto a complex media control and minimal media containing incrementally increasing concentrations of glufosinate and 20 μM IPTG. The cultures were dispersed evenly over the plates and incubated at 28° C. for 24 hours.

[4] = test system: PAT gene + AAD-12 transformed T1 Arabidopsis; experiment: T1 Arabidopsis response to glufosinate applied postemergence; format: in vivo, Arabidopsis thaliana; details: 2 WAT
Experimental: (§2) Seven days after planting (DAP) and again 11 DAP, T1 plants (cotyledon and 2-4-1f stage, respectively) were sprayed with a 0.016% solution of 2,4-D herbicide (456 g ae/L 2,4-D Amine 4, Dow AgroSciences LLC, Indianapolis, Ind.) at a spray volume of 10 ml/tray (703 L/ha) using a DeVilbiss compressed air spray tip to deliver an effective rate of 50 g ae/ha 2,4-D DMA per application. Survivors (plants actively growing) were identified 4-7 days after the final spraying and transplanted individually into 3-inch pots prepared with potting media (Metro Mix 360). Transplanted plants were covered with humidity domes for 3-4 days and placed in a 22° C. growth chamber as before or moved to directly to the greenhouse. Domes were subsequently removed and plants reared in the greenhouse (22±5° C., 50±30% RH, 14 h light:10 dark, minimum 500 μE/m^2s^1 natural+supplemental light) at least 1 day prior to testing for the ability of DSM-2 (v2) to provide glufosinate herbicide resistance.
(§3) T1 plants were then randomly assigned to various rates of glufosinate. For Arabidopsis 140 g ai/ha glufosinate is an effective dose to distinguish sensitive plants from ones with meaningful levels of resistance. Elevated rates were also applied to determine relative levels of resistance (280, 560, or 1120 g ai/ha).
(§4) All glufosinate herbicide applications were applied by track sprayer in a 187 L/ha spray volume. The commercial Liberty™ formulation (200 g ai/L, Bayer Crop Science, Research Triangle Park, N.C.).
(§5) The first Arabidopsis transformations were conducted using DSM-2 (v2) (plant optimized gene). T1 transformants were first selected from the background of untransformed seed using a 2,4-D DMA selection scheme. Over 100,000 T1 seed were screened and 260 2,4-D resistant plants (AAD-12 gene) were identified, equating to a transformation/selection frequency of 0.26% which is slightly higher than the normal range of selection frequency of constructs where AAD-12+2,4-D are used for selection. T1 plants selected above were subsequently transplanted to individual pots and sprayed with various rates of commercial glufosinate herbicide. Table 10 compares the response of DSM-2 (v2) and control genes to impart glufosinate resistance to Arabidopsis T1 transformants. Response is presented in terms of % visual injury 2 WAT. […] Since each T1 is an independent transformation event, one can expect significant variation of individual T1 responses within a given rate. An arithmetic mean and standard deviation is presented for each treatment. Untransformed-wildtype Arabidopsis served as a glufosinate sensitive control. The DSM-2 (v2) gene imparted herbicide resistance to individual T1 Arabidopsis plants. Within a given treatment, the level of plant response varied greatly and can be attributed to the fact each plant represents an independent transformation event. Of important note, at above 140 g ai/ha glufosinate, there were individuals that were unaffected while some were severely affected.

[5] = test system: DSM-2 (v2) gene + AAD-12 transformed T1 Arabidopsis; experiment: as above; format: in vivo, Arabidopsis thaliana; details: for % Injury Ave / individuals with % Injury 20-40% / individuals with % Injury <20% / individuals with % Injury >40%: 2 WAT
Experimental: as §2, §3, §4, §5

[6] = 140 g ai/ha glufosinate postemergence
[7] = 280 g ai/ha glufosinate postemergence
[8] = 560 g ai/ha glufosinate postemergence
[9] = 1120 g ai/ha glufosinate postemergence

In the case of `CP(=O)(O)CCC(N)C(=O)O` (stereo not drawn) [glufosinate], the “bacterial growth on minimal media” value ([1]; 250 μg/ml BASTA) is reported as “++”, the “bacterial growth on minimal media” value ([1]; 500 μg/ml BASTA) is reported as “+” and the “bacterial growth on minimal media” value ([2]; 250 μg/ml BASTA) is reported as “++++”. The “bacterial growth on minimal media” value ([2]; 500 μg/ml BASTA) was “+++”, the “bacterial growth on minimal media” value ([2]; 1000 μg/ml BASTA) was “+++” and the “bacterial growth on minimal media” value ([2]; 2000 μg/ml BASTA) was “+++”. The “bacterial growth on minimal media” value ([2]; 4000 μg/ml BASTA) was “+++”, the “bacterial growth on minimal media” value ([3]; 250 μg/ml BASTA) was “+++” and the “bacterial growth on minimal media” value ([3]; 500 μg/ml BASTA) was “+++”. For the same compound, the “bacterial growth on minimal media” value ([3]; 1000 μg/ml BASTA) was “+++”, the “bacterial growth on minimal media” value ([3]; 2000 μg/ml BASTA) was “+++” and the “bacterial growth on minimal media” value ([3]; 4000 μg/ml BASTA) was “+++”. The “% Injury Ave” value [4, 6] was 0.0%, the “individuals with % Injury 20-40%” value [4, 6] was 0 and the “individuals with % Injury <20%” value [4, 6] was 10. The “individuals with % Injury >40%” value [4, 6] was 0, the “% Injury Ave” value [4, 7] was 0.0% and the “individuals with % Injury 20-40%” value [4, 7] was 0. For the same compound, the “individuals with % Injury <20%” value [4, 7] was 10, the “individuals with % Injury >40%” value [4, 7] was 0 and the “% Injury Ave” value [4, 8] was 0.0%. The “individuals with % Injury 20-40%” value [4, 8] was 0, the “individuals with % Injury <20%” value [4, 8] was 10 and the “individuals with % Injury >40%” value [4, 8] was 0. The “% Injury Ave” value [4, 9] was 3.0%, the “individuals with % Injury 20-40%” value [4, 9] was 0 and the “individuals with % Injury <20%” value [4, 9] was 10. For the same compound, the “individuals with % Injury >40%” value [4, 9] was 0, the “% Injury Ave” value [5, 6] was 0.0% and the “individuals with % Injury 20-40%” value [5, 6] was 0. For the same compound, the “individuals with % Injury <20%” value [5, 6] was 20, the “individuals with % Injury >40%” value [5, 6] was 0 and the “% Injury Ave” value [5, 7] was 3.0%. The “individuals with % Injury 20-40%” value [5, 7] was 1, the “individuals with % Injury <20%” value [5, 7] was 19 and the “individuals with % Injury >40%” value [5, 7] was 0. For the same compound, the “% Injury Ave” value [5, 8] was 6.0%, the “individuals with % Injury 20-40%” value [5, 8] was 0 and the “individuals with % Injury <20%” value [5, 8] was 19. For the same compound, the “individuals with % Injury >40%” value [5, 8] was 1, the “% Injury Ave” value [5, 9] was 13.0% and the “individuals with % Injury 20-40%” value [5, 9] was 1. The “individuals with % Injury <20%” value [5, 9] was 17, the “individuals with % Injury >40%” value [5, 9] was 2 and the “injury of surviving individuals” value ([5]; 1,120 g ai/ha glufosinate, many individuals) was “little or no injury”.
